# How the values were obtained:
# [1] = test system: LoVo colon carcinoma cells; assay: Cell viability, LDH release assay, LoVo; conditions: 48 h; for viability at 100 µg/mL / IC50: Homo sapiens, LoVo; for viability at 100 µg/mL: read-out: Mean % of viable cells ± SD, LoVo, 100 µg/mL, 48 h, LDH release assay; for IC50: read-out: Mean IC50 Values in µM ± SD, LoVo cells
# Method: (§1) The studied compounds were also screened for their cytotoxic effects on HCT-116 and LoVo colon carcinoma cells, as well as normal HUVECs, using the standard LDH assay at a concentration of 100 µg/mL.
# (§2) The antiproliferative activities of the newly synthesized compounds 3a–e, 8, 9a–c, 13, 14, 17, 18a–h, 20, 22, 23 and 25 were examined on human colon HCT-116 and LoVo cell lines as well as HUVEC (American Type Culture Collection, Manassas, VA, USA). […]
# (§3) S3.2.4. Cell culture and viability assay.
# (§4) The cytotoxic activities of the newly synthesized compounds (3a-e, 8, 9a-c, 13, 14, 17, 18a-h, 20, 22,
# (§5) 23, and 25) were examined on human colon cancer cell lines HCT-116 and Lovo (American Type
# (§6) Culture Collection, USA). Various concentrations (50, 100, 200, and 400 μg/mL) of test compounds
# (§7) were prepared in Dulbecco’s Modified Eagles Medium (PAN-Biotech, Barcelona, Spain),
# [2] = test system: HCT-116 colon carcinoma cells; assay: Cell viability, LDH release assay, HCT-116; conditions: for viability at 100 µg/mL / IC50: Homo sapiens, HCT-116, 48 h; for viability at 100 µg/mL: read-out: Mean % of viable cells ± SD, HCT-116, 100 µg/mL, 48 h, LDH release assay; for IC50: read-out: Mean IC50 Values in µM ± SD, HCT-116 cells
# Method: as §1, §2, §3, §4, §5, §6, §7
# [3] = DPPH radical scavenging assay; conditions: three independent experiments; read-out: Mean IC50 (mM) for initial DPPH radicals ± SD
# Method: The antioxidant activities of the studied compounds were assessed using the 1,1-diphenyl-2-picrylhydrazyl (DPPH) radical scavenging method as detailed by Bersuder et al.. The results were expressed as IC50 (mM)—the concentration of the test compound required to neutralize 50% of DPPH radicals.
# The antioxidant efficiencies of target compounds were determined using the 1,1-diphenyl-2-picrylhydrazyl (DPPH) radical scavenging method as detailed by Bersuder et al.. […]
# S3.2. Evaluation of Biological Activities.
# S3.2.1. In vitro DPPH radical scavenging assay.
# The antioxidant efficiencies of compounds—3a−e, 8, 9a−c, 13, 14, 17, 18a−h, 20, 22, 23, and 25—were
# determined using the 1,1-diphenyl-2-picrylhydrazyl (DPPH) radical scavenging method as
# detailed by Bersuder et al.. Fundamentally, the purple color of the stabilized DPPH radical
# fades in the presence of an antioxidant, thus, the change of absorbance can be followed
# spectrophotometrically at 519 nm. In the assay, equal volumes (0.5 mL) of DPPH ethanolic solution
# and each compound (0-2 mg/mL in DMSO) or butylated hydroxytoluene (BHT) as the reference
# were mixed well by shaking. The negative control consisted of the same amount of DMSO and
# DPPH solution. After, incubation all mixtures at room temperature in the dark for one hour, the
# absorbance of the residual DPPH radicals was measured at 519 nm using the UV‐vis
# spectrophotometer. The DPPH radical scavenging activity of each compound (%) was calculated
# Scavenging activity = (1 − Acompound/AControl) * 100, where Acompound and Acontrol the absorbance values
# of each tested compound (or BHT) and the negative control, respectively. The half maximal
# inhibitory concentration (IC50) for each compound in mg/mL was deduced by graphing the dose-
# response curve relating the scavenging activity (%) to the compound concentration. Data points
# represent the mean ± standard deviation (SD) of three independent determinations.
# [4] = biological target: recombinant human LDHA protein (Homo sapiens, UniProt P00338); assay: In vitro LDHA inhibitory assay (NADH consumption); format: biochemical; conditions: 100 µg/mL, three replicates; for inhibition at 100 µg/mL: read-out: Mean Inhibition Percent ± SD, LDHA
# Description: The LDHA inhibitory efficiencies were investigated on Spectramax M2 spectrofluorometer via measuring the amounts of the consumed NADH^40 using an NAD^+/NADH quantification kit. […]
# S3.2.3. In vitro LDHA inhibitory assay.
# The LDHA inhibitory activity of the test compounds was investigated using Spectramax M2
# spectrofluorometer by measuring the amounts of the consumed NADH [42] employing
# NAD+/NADH quantification kit. Briefly, the assay medium containing various concentrations of
# each test compound (50, 100, 200 and 300 μg/mL) was incubated in assay medium composed of 20
# mM of HEPES-K+ buffer (pH 7.2), 20 μM of NADH, 2 mM of pyruvate and 10 ng of purified
# recombinant human LDHA protein for 10 min utes. The activity of LDHA would result in reduction
# of pyruvate into lactate with concomitant oxidation of NADH to NAD +. Since NADH (reduced
# […] by monitoring the change in the intensity of the fluorescence
# at 340 nm over a 10-minute period. The rate of the fluorescence change (slope) in treated samples
# was compared to that obtained from negative control experiment (100 % enzymatic activity) to
# determine the percentage of inhibition. The IC50 value—defined as the compound concentration
# required to reduce the luminescence by 50%, compared to untreated control wells—was
# determined for each compound from the corresponding dose–response curve generated by
# plotting LDHA inhibition (%) against compound concentration.
# was used as the reference LDHA inhibitor. […]
# [5] = Cell viability, LDH release assay, normal HUVECs; conditions: human, normal HUVECs, Mean % of viable cells ± SD, HUVEC
# Method: as §1, §2
# (§8) medium served used as negative and positive controls, respectively. Percentages of viable cells […]
# (§9) were calculated based on relative optical density (OD) values (at 550 nm) for compound-treated […]
# (§10) wells (final concentration of 100 μg/mL), compared to the negative control, and expressed as mean value (%) ± SD from two replicates. Graphing dose-response curves representing the compound […]
# (§11) concentration versus the percentages of viable cells was also conducted to deduce the half - […]
# (§12) Additionally, the safety profiles of the studied compounds were assessed against normal cells […]
# (§13) (HUVECs) at final concentration of 100 μg/mL . HUVECs were grown in Dulbecco’s Modified Eagle’s Medium supplemented with 10% FBS, 2 mM glutamine (Sigma Aldrich), 100 units/mL penicillin and […] streptomycin (Life Technologies; Paisley, UK). […]
# PDK-1 = PDK-1 (Homo sapiens, UniProt Q15118); assay: In vitro PDK-1 inhibition assay (Kinase-Glo luminescent kinase kit); format: biochemical; conditions: 100 µg/mL, three replicates; for inhibition at 100 µg/mL: read-out: Mean Inhibition Percent ± SD, PDK-1
# Method: Principally, the PDK-1 inhibitory activities were evaluated using the non-radioactive Kinase-Glo™ Luminescent Kinase Kit (Promega Corporation, Madison, WI, USA) following the instructions of the manufacturer.
# S3.2.2. In vitro PDK-1 inhibition assay.
# The PDK-1 inhibitory activities of the test compounds were evaluated using the non-radioactive
# Kinase-Glo™ Luminescent Kinase kit (Promega Corporation, Madison, WI, USA), following the
# manufacturer’s protocol. Briefly, 5 μL of assay buffer—containing 10 × 250 mM Tris-HCl, 50 mM
# MgCl2, 5 mM ethyleneglycol-bis(β-aminoethylether)-N,N,N′,N′-tetraacetic acid (EGTA), 10 mM
# ethylenedi- aminetetraacetic acid (EDTA), and 10 mM dithiothreitol (DTT)—was added to each
# well of a 96-well plate, along with 25 μL of distilled water. Subsequently, 5 μL of each test
# compound at various concentrations (50, 100, 200 and 300 μg/mL in 1% DMSO) was added to the
# respective wells, except for the two control wells, which received 5 μL of either PBS buffer or 1%
# DMSO. Then, 5 μL of pyruvate dehydrogenase E1 (PDH E1) protein (10 μM) and 5 μL of ATP
# (10 μM) were added to each well. To initiate phosphorylation, 5 μL of PDK-1 (20 μM) in protein
# buffer (1 mM MgCl2, 2000 mM KCl, 40 mM K3PO4) was added to all the wells except the control
# wells, which received 5 μL of protein buffer instead. The plate was then mixed thoroughly and
# incubated at 37 °C for 30 minutes. After incubation, 50 μL of kinase-Glo® reagent was added to each
# well, followed by a 10-minute incubation at room temperature with gentle shaking to stabilize the
# luminescent signal. Luminescence was then measured using a microplate reader.
# The IC50 value—defined as the concentration of a compound required to reduce luminescence by
# 50%, compared to untreated control wells—was determined for each compound from the
# corresponding dose–response curve generated by plotting PDK-1 inhibition (%) versus compound
# concentration. Sodium dichloroacetate (SDA, 1000 μM) was used as a reference PDK-1inhibitor. […]
# HUVECs = assay: Cell viability, LDH release assay, normal HUVECs; conditions: 100 µg/mL, 48 h
# Method: as §1, §2, §8, §9, §10, §11, §12, §13
# Sequence of PDK-1 (Q15118 29-436): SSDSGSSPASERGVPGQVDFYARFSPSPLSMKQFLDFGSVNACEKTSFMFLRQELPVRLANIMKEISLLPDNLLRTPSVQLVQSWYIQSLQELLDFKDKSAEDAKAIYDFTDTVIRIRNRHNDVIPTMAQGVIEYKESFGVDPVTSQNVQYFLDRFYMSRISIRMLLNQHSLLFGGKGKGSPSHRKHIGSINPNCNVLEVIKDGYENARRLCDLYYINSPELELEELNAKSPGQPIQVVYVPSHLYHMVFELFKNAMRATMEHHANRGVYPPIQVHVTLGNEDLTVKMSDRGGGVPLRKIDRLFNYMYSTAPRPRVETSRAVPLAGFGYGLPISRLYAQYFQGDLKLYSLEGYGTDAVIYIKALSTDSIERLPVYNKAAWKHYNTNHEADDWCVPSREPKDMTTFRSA
Compound,viability at 100 µg/mL [1] [%],IC50 [1] [µM],viability at 100 µg/mL [2] [%],IC50 [2] [µM],IC50 [3] [mM],inhibition at 100 µg/mL [4] [%],"viability at 48 h, 100 µg/mL [5] [%]",inhibition at 100 µg/mL (PDK-1) [%],"Mean % of viable cells ± SD, LoVo ([1]; 100 µg/mL, LDH release assay) [%]","Mean % of viable cells ± SD, HCT-116 ([2]; 100 µg/mL, 48 h, LDH release assay) [%]","Mean Inhibition Percent ± SD, LDHA [4] [%]","Mean % of viable cells ± SD, HUVEC (HUVECs) [%]","Mean Inhibition Percent ± SD, PDK-1 (PDK-1) [%]"
"COc1cc(C=C(NC(=O)c2ccccc2)c2n[nH]c(=S)o2)ccc1O [Compound 22, N-(2-(4-Hydroxy-3-methoxyphenyl)-1-(5-thioxo-4,5-dihydro-1,3,4-oxa-diazol-2-yl)vinyl)benzamide]",29.5 ± 2.12,437.3 ± 1.51,40.5 ± 3.54,511 ± 5.61,0.65 ± 0.076,27.2 ± 2.48,79 ± 2,39.5 ± 2.12,,,,,
"COc1cc(/C=C(\NC(=O)c2ccccc2)C(=O)NNC(=S)Nc2ccccc2)ccc1O [Compound 23, N-(1-(4-Hydroxy-3-methoxyphenyl)-3-oxo-3-(2-(phenylcarbamothionyl)hydrazinyl)prop-1-en-2-yl)benzamide]",57.5 ± 2.12,444 ± 9.17,23 ± 2.83,215.4 ± 1.25,1.21 ± 0.03,34.4 ± 3.32,80 ± 1.92,11 ± 1.41,,,,,
"N-(3-(2-(1-(2-((2,4-Dimethylphenyl)amino)-2-oxoethyl)-2-oxoindolin-3-ylidene)hydrazinyl)-1-(4-hydroxy-3-methoxyphenyl)-3-oxoprop-1-en-2-yl)benzamide [Compound 25]",,,,,0.162 ± 0.023,,,,71.50 ± 3.54,79.00 ± 2.83,40.50 ± 3.54,87.94 ± 2.33,13.30±1.84
